Source: ChEMBL document CHEMBL2407077, “Cycloforskamide, a cytotoxic macrocyclic peptide from the sea slug Pleurobranchus forskalii” (J Nat Prod, 2013)
Numbered stars: 1 amine (or outer) side, 2 acyl side, 3 side chain; on linkers, the order of the positions; unused ones are H or OH. Square brackets hold non-standard residues; d marks the D form. Peptide text beside a SMILES is read from it. X2 = CC[C@H](C)[C@@H](N[*:1])C1=N[C@H](C(=O)[*:2])CS1; X1 = O=C([C@@H]1CSC([C@H]2CCCN2[*:1])=N1)[*:2]

System: P388
Test: Cytotoxicity against mouse P388 cells after 3 days by MTT assay
Format: functional, cell-based
Conditions: P388, 72 h

Compound `COc1cccc2c1C(=O)c1c(O)c3c(c(O)c1C2=O)C[C@@](O)(C(=O)CO)C[C@@H]3O[C@H]1C[C@H](N)[C@H](O)[C@H](C)O1` [DOXORUBICIN] has an IC50 of 0.21 µM.
For `CC[C@H](C)[C@@H]1NC(=O)[C@@H]2CSC(=N2)[C@H]2CCCN2C(=O)[C@H]([C@@H](C)O)NC(=O)[C@H](C(C)C)NC(=O)[C@H](C(C)C)NC(=O)[C@H]([C@@H](C)O)NC(=O)[C@@H]2CSC(=N2)[C@@H]([C@@H](C)CC)NC(=O)[C@H](C(C)C)NC(=O)[C@@H]2CSC(=N2)[C@H]2CCCN2C1=O` [CYCLOFORSKAMIDE] (cyclo(I[X1]V[X2]TVVT[X1])), the IC50 was 5.8 µM.
